Measurements from paper PMC5923171, “Novel Zinc-Attenuating Compounds as Potent Broad-Spectrum Antifungal Agents with In Vitro and In Vivo Efficacy” (Antimicrobial Agents and Chemotherapy, 2018).
Converted amounts (≈) assume the structure as drawn.

Assays:
[1] = cited from earlier work
HepG2 cells = assay: Human hepatocyte (HepG2) proliferation assay; type: cell-based; conditions: for EC50: 24 h exposure, XTT
Protocol: In each well of a 96-well tissue culture plate (GR-655180; Grenier), 10,000 human hepatocytes (HepG2) (85011430; […] Sigma]) supplemented with 2 mM L-[…]-020-1B; Biological Industries), 1% nonessential amino acids (XC-[…]/100; Biosera), and 10% fetal bovine serum (BI-04-007-1A; Biological Industries), and plates were incubated overnight at 37°C and 5% CO2. […] The plate was incubated for a further 24 h or 72 h at 37°C and 5% CO2. The medium was then replaced with 100 μl of freshly prepared 2,3-bis-(2-methoxy-4-nitro-5-sulfophenyl)-2H-tetrazolium-5-carboxanilide salt (XTT) sodium salt solution (0.5 mg/ml of XTT; […]; Sigma) in RPMI 1640 ([…]; Sigma-Aldrich) with 3.83 μg/ml of phenazine methosulfate ([…]; Sigma-Aldrich) and incubated 2 to 3 h at 37°C and 5% CO2 ([43]). The color reaction was measured on Victor X5 plate reader (Perkin-Elmer) at OD450, and the half-maximal effective concentration (EC50) was calculated. Tamoxifen (85256; Sigma) was used as a positive-control compound.

[2] = Potentiometric titration, ligand-Zn(II) complex formation; type: binding; conditions: DMSO-water (70:30, vol/vol), 0.5 eq of Zn^2+
Protocol: (§1) The Zn^2+-binding properties of ZAC307 and ZAC989 were further evaluated using a potentiometric assay, where pH is measured as a function of base (NaOH) added to the compound in either the absence or presence of metal. […] To determine the deprotonation constant, a solution of 1 mM ZAC307 or ZAC989 was titrated with 0.3 M NaOH at constant ionic strength (Fig. 2A and B). In a second run, the same titration was performed in the presence of 0.5 eq of Zn^2+ for ZAC307 and ZAC989. A shift in the pH curve in the presence of the metal (ZAC307, 0.5 eq of Zn^2+ [Fig. 2A]) compared to the absence of the metal (ZAC307 [Fig. 2A]) indicates binding of Zn^2+ to the compound. The measured pH data were analyzed with the Hyperquad program suite, taking into account all relevant equilibrium constants, including also the constants for metal hydroxylation. The analysis provides the pKa values and metal complex stability constants, as well as ligand-metal complex speciation calculation, indicating how many ZAC molecules are involved in coordinating the Zn^2+ ion at different pH values. […] ZAC989 bound copper with the formation constants log β1, log β2, and log β3 of 7.83, 13.37, and 20.62, respectively. The most dominant ZAC989-copper stoichiometry was a 3:1 stoichiometry (Fig. 2E).
(§2) Potentiometric measurements were carried out in DMSO-water (70:30, vol/vol) at 25°C as described previously ([22]). Titrations were performed with a pH meter (Denver Instruments) utilizing a glass electrode with AgCl reference filled with 3.0 M KCl. The electrode was equilibrated in DMSO-water (70:30, vol/vol) for at least 1 h before use. All experiments were performed at a constant ionic strength (0.1 M NaClO4). Three milliliters of a solution containing 1 mM compound was titrated with 0.3 M NaOH by manual additions in 1- to 5-μl increments with magnetic stirring. The metal-ligand binding constants were obtained from titrations of the metal complex solutions prepared in a 1:2 metal-to-ligand ratio. The titration data were refined by the nonlinear least-squares refinement program Hyperquad2013 ([37]) to determine the deprotonation and stability constants.

[3] = target: fungal plasma membrane H^+-ATPase (Saccharomyces cerevisiae, UniProt P05030); assay: H+-ATPase-inhibitory activity; type: biochemical
[4] = Solubility in water at millimolar concentrations; type: physicochemical
C. krusei ATCC 6258 = assay: Antifungal susceptibility testing (MIC); type: cell-based, Candida krusei; conditions: Pichia kudriavzevii, ATCC6258; at least 50% growth inhibition, RPMI, 24 h, 34°C
Protocol: Antifungal susceptibility testing was carried out as described previously ([38], [39]), with a few modifications. Briefly, for each yeast or mold growth inhibition assay, frozen stocks of yeast cells or spores were diluted to a final concentration of 0.5 × 10^5 to 2.5 × 10^5 CFU/ml in sterile water. ZAC989, ZAC307, and ZAC623 were dissolved in DMSO to 10 mM stocks from which half-log serial dilutions were prepared. Growth assays were subsequently performed by pipetting 3 μl of compound dissolved in DMSO (giving a final concentration of 1.5% DMSO), 100 μl of cell-spore suspension, and 97 μl of 2× RPMI medium (20.8 g/liter of RPMI 1640 medium, 69.06 g/liter of morpholinepropanesulfonic acid [MOPS], 36 g/liter of glucose) into a microtiter plate that was incubated for 24 h (yeasts) or 48 to 72 h (molds) at 34°C. Fungal growth was determined spectrophotometrically by optical density reading of each well at a wavelength of 492 nm on a Victor X5 (Perkin-Elmer) plate reader. […] Standard errors between repeated experiments were generally below 5%. The growth effect of exogenous addition of various divalent metals was evaluated by performing the antifungal susceptibility assay in the presence of 5 μM ZAC989 or ZAC307 and with increasing concentrations (0.003 to 50 μM) of ZnSO4, CuSO4, (NH4)2Fe(SO4)2, MgCl2, and CaCl2.

[5] = Potentiometric titration, ligand-copper complex formation; type: binding; conditions: for copper binding (in words): potentiometric titration with CuSO4
Protocol: as §1, §2

[6] = DMSO-water (70:30, vol/vol), CuSO4

Sequence of fungal plasma membrane H^+-ATPase (P05030 whole entry): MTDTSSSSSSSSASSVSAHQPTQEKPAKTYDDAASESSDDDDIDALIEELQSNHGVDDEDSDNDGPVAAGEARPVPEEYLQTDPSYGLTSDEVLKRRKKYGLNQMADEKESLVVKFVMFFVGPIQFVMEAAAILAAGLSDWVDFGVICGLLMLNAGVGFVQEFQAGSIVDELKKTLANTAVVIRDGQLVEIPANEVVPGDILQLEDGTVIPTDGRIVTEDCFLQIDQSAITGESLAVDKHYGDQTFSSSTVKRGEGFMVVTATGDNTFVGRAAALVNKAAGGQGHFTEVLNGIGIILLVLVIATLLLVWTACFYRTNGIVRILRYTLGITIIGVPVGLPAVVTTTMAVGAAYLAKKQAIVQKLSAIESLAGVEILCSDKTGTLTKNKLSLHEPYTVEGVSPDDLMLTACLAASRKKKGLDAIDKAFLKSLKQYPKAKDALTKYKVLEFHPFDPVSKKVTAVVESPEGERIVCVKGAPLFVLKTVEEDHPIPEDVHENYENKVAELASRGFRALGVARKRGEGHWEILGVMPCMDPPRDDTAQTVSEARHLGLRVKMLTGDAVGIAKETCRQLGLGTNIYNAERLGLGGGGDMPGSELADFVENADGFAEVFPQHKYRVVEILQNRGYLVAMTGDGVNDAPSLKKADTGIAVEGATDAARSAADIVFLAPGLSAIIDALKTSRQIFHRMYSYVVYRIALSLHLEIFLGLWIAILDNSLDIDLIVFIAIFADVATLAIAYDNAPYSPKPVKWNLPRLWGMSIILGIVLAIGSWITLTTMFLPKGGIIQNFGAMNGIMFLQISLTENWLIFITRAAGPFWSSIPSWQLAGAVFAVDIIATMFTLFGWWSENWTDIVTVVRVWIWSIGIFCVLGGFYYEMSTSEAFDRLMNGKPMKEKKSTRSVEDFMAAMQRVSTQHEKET

| SMILES | zinc chelation (in words) [1] | effect on the proliferation of HepG2 cells (in words) (HepG2 cells) | EC50 (HepG2 cells) | formation constant log β1 (1:1 ligand-Zn(II) complex) [2] | formation constant log β2 (2:1 ligand-Zn(II) complex) [2] | formation constant log β3 (3:1 ligand-Zn(II) complex) [2] | H^+-ATPase-inhibitory activity [3] | solubility in water [4] | MIC (C. krusei ATCC 6258) | copper binding (in words) [5] | formation constant log β1 (copper) [5, 6] | formation constant log β2 (copper) [5, 6] | formation constant log β3 (copper) [5, 6] |
| --- | --- | --- | --- | --- | --- | --- | --- | --- | --- | --- | --- | --- | --- |
| O=C(O)CN(CCN(CC(=O)O)CC(=O)O)CC(=O)O [EDTA] | very potent zinc chelators | did not affect the proliferation of HepG2 cells | >29 µg/mL | – | – | – | – | – | – | – | – | – | – |
| CN(C)c1cc(-n2nc(-c3ccccc3)cc2O)ncn1 [ZAC307, 2-[6-(dimethylamino)pyrimidin-4-yl]-5-phenyl-pyrazol-3-ol] | – | – | – | 7.47 | 13.27 | 18.14 | lacked H^+-ATPase-inhibitory activity | poor solubility in water | 0.4 µg/mL (≈ 1.42 µM) | binds copper | – | – | – |
| Cc1cc(O)n(-c2cc(N3CC[C@H](Oc4cnccc4C#N)C3)ncn2)n1 [ZAC989, 3-[(3S)-1-[6-(5-hydroxy-3-methyl-pyrazol-1-yl)pyrimidin-4-yl]pyrrolidin-3-yl]oxy-pyridine-4-carbonitrile] | – | – | >36 µg/mL | 7.35 | 14.30 | 19.71 | lacked H^+-ATPase-inhibitory activity | poor solubility in water | 0.8 µg/mL (≈ 2.2 µM) | chelates copper | 7.83 | 13.37 | 20.62 |
| c1ccc(CN(CCN(Cc2ccccn2)Cc2ccccn2)Cc2ccccn2)nc1 [TPEN, N,N,N’,N’-tetrakis(2-pyridylmethyl)-ethylenediamine] | very potent zinc chelators | – | – | – | – | – | – | – | – | – | – | – | – |
